Like-named read-outs stand apart in the source and are kept apart here.
Columns and labels:
[1] = molecular target: T1, ScPFTase (protein farnesyltransferase), β-subunit (Saccharomyces cerevisiae, UniProt P22007); experiment: continuous fluorescence assay with N-dansyl-GCVIA; assay type: biochemical
T1 sequence (P22007 1-431): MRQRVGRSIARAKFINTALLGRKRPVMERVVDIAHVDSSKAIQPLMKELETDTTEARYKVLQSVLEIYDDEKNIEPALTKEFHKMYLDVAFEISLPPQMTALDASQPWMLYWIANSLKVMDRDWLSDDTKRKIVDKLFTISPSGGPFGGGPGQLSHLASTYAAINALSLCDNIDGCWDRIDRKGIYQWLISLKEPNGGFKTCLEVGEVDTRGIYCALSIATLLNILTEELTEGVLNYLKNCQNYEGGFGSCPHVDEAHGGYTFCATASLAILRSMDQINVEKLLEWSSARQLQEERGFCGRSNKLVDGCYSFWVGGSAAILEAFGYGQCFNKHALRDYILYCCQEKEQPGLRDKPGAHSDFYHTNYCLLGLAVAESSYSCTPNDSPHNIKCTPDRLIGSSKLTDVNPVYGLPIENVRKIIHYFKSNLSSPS
T1 sequence (P29703 1-316 partner): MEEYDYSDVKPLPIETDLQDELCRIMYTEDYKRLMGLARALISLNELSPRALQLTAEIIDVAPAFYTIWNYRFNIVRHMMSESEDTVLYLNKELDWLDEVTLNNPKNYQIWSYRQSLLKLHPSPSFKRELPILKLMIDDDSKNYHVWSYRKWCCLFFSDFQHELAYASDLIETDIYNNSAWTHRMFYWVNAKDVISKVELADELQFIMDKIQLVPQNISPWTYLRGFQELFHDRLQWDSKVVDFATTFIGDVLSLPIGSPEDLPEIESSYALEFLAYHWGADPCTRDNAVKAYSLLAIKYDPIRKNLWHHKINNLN

[2] = molecular target: T1, ScPFTase (protein farnesyltransferase), β-subunit; experiment: continuous fluorescence assay with N-dansyl-GCVIA; assay type: biochemical; remark: listed apart in the source

## C/C(=C\COP(=O)(O)OP(=O)(O)O)CCCC(C)COC(=O)C(=[N+]=[N-])C(F)(F)F (racemic) [compound 4, (E)-8-O-(2-Diazo-3,3,3-trifluoropropanoyloxy)-3,7-dimethyl-2-octenyl-1-diphosphate]
[1]
  IC50: 30 µM

## C/C(=C\COP(=O)(O)OP(=O)(O)O)CC/C=C(\C)CNC(=O)C(=[N+]=[N-])C(F)(F)F [compound 3, (E,E)-8-N-(2-Diazo-3,3,3-trifluoropropionamido)-3,7-dimethyl-2,6-octadienyl-1-diphosphate]
[2]
  IC50: 50 µM

— article PMC2836812 (Chemical biology & drug design, 2010)
